# Experimental data taken from patent US9328374B2, “Selective culture medium and method for detecting carbapenem-resistant bacteria in a test sample” (Institut National de la Sante et de la Recherche Medicale …, priority 2011, dated 2016).
# Read-outs that look alike come from different tables or passages of the source.
# Test system: K. pneumoniae
# Experiment: MIC of imipenem, ertapenem and meropenem
# Type: cell-based, Klebsiella pneumoniae
# Conditions: Klebsiella pneumoniae, read-out: MIC
smiles,measurement,setting,value
"C[C@@H](O)[C@H]1C(=O)N2C(C(=O)O)=C(S[C@@H]3CN[C@H](C(=O)Nc4cccc(C(=O)O)c4)C3)[C@H](C)[C@H]12 [ETP, ertapenem]",MIC,K. pneumoniae 1 OMA (NDM-1 + CTX-M-15 + OXA-1 + OXA-9),> 32 µg/mL
same,MIC,K. pneumoniae 2 OLA (NDM-1 + OXA-1),6 µg/mL
same,MIC,K. pneumoniae 7 AFR (NDM-1 + OXA-1 + CTX-M-15 + CMY-6 + TEM-1),> 32 µg/mL
same,MIC,"K. pneumoniae 7AFR, NDM-1 + TEM-1 + CTX-M-15 + CMY-6 + OXA-1",> 32 µg/mL
same,MIC,"K. pneumoniae 0227, SHV-1, non-carbapenemase producer",0.008 µg/mL
same,MIC,"K. pneumoniae 588, KPC-2 + TEM-1 + SHV-11 + OXA-9",32 µg/mL
same,MIC,"K. pneumoniae 1022, SHV-2a + SHV-28, non-carbapenemase producer",0.016 µg/mL
same,MIC,K. pneumoniae 1025 (CTX-M-14 + TEM-1 + SHV-11),0.016 µg/mL
same,MIC,"K. pneumoniae 1025, CTX-M-14 + TEM-1 + SHV-11, non-carbapenemase producer",0.016 µg/mL
same,MIC,"K. pneumoniae 2303, KPC-2 + SHV-11",> 32 µg/mL
same,MIC,K. pneumoniae 6642 GEN (NDM-1 + CTX-M-15 + OXA-1 + OXA-10),16 µg/mL
same,MIC,"K. pneumoniae 6642 GEN, NDM-1 + CTX-M-15 + OXA-1 + OXA-10",16 µg/mL
same,MIC,K. pneumoniae 6759 GEN (NDM-1 + CTX-M-15 + OXA-1 + OXA-9 + OXA-10 + CMY16),> 32 µg/mL
same,MIC,"K. pneumoniae 6759 GEN, NDM-1 + CTX-M-15 + CMY-16 + OXA-1 + OXA-9 + OXA-10",> 32 µg/mL
same,MIC,K. pneumoniae 7725 (SHV-1),0.006 µg/mL
same,MIC,"K. pneumoniae 7725, SHV-1, non-carbapenemase producer",0.006 µg/mL
same,MIC,"K. pneumoniae 10112, CTX-M-15 + TEM-1 + SHV-11, non-carbapenemase producer",0.016 µg/mL
same,MIC,"K. pneumoniae 0404020, VIM-1+ SHV-5",> 32 µg/mL
same,MIC,"K. pneumoniae 0404024, VIM-1",> 32 µg/mL
same,MIC,"K. pneumoniae 0511135, VIM-1+ SHV-12",> 32 µg/mL
same,MIC,K. pneumoniae 648236 (SHV-2a),2 µg/mL
same,MIC,"K. pneumoniae 648236, SHV-2a, non-carbapenemase producer, porin deficiency",2 µg/mL
same,MIC,"K. pneumoniae 0709121, IMP-1",3 µg/mL
same,MIC,"K. pneumoniae 0709124, IMP-1 + TEM-15",3 µg/mL
same,MIC,"K. pneumoniae 0709125, IMP-1 + TEM-1 + SHV-12",4 µg/mL
same,MIC,"K. pneumoniae 0709127, IMP-1 + TEM-1",4 µg/mL
same,MIC,"K. pneumoniae A28006, KPC-2 + TEM-1 + CTX-M-2 + SHV-11",24 µg/mL
same,MIC,"K. pneumoniae A33504, KPC-2 + TEM-1 + SHV-11 + CTX-M-2 + OXA-9",> 32 µg/mL
same,MIC,"K. pneumoniae AEL, OXA-48 + CTX-M-15 + SHV-28 + OXA-1",6 µg/mL
same,MIC,K. pneumoniae ALE (CTX-M-15 + SHV-1),> 32 µg/mL
same,MIC,"K. pneumoniae ALE, CTX-M-15 + SHV-1, non-carbapenemase producer, porin deficiency",> 32 µg/mL
same,MIC,K. pneumoniae AMS (OXA-48 + TEM-1 + CTX-M-15 + OXA-1),2 µg/mL
same,MIC,"K. pneumoniae AMS, OXA-48 + TEM-1 + CTX-M-15 + OXA-1",2 µg/mL
same,MIC,K. pneumoniae BAJ (OXA-48 + TEM-1 + CTX-M-15 + SHV-28),1.5 µg/mL
same,MIC,"K. pneumoniae BAJ, OXA-48 + TEM-1 + CTX-M-15 + SHV-28",1.5 µg/mL
same,MIC,K. pneumoniae BED (CTX-M-15 + TEM-1 + SHV-1; Table 8: SHV-11),> 32 µg/mL
same,MIC,"K. pneumoniae BED, CTX-M-15 + TEM-1 + SHV-11, non-carbapenemase producer, porin deficiency",> 32 µg/mL
same,MIC,K. pneumoniae BEL (OXA-48),4 µg/mL
same,MIC,"K. pneumoniae BEL, OXA-48",4 µg/mL
same,MIC,K. pneumoniae BEN (OXA-48 + TEM-1 + CTX-M-15 + SHV-28),1 µg/mL
same,MIC,"K. pneumoniae BEN, OXA-48 + TEM-1 + CTX-M-15 + SHV-28",1 µg/mL
same,MIC,K. pneumoniae BER (TEM-1 + SHV-28),4 µg/mL
same,MIC,"K. pneumoniae BER, SHV-28 + TEM-1, non-carbapenemase producer, porin deficiency",4 µg/mL
same,MIC,K. pneumoniae BEY (OXA-48 + CTX-M-15 + TEM-1),0.38 µg/mL
same,MIC,"K. pneumoniae BEY, OXA-48 + TEM-1 + CTX-M-15",0.38 µg/mL
same,MIC,K. pneumoniae BIC (OXA-48),2 µg/mL
same,MIC,"K. pneumoniae BIC, OXA-48",2 µg/mL
same,MIC,"K. pneumoniae BOU, OXA-48",0.5 µg/mL
same,MIC,K. pneumoniae CHA (OXA-48 + TEM-1),1 µg/mL
same,MIC,"K. pneumoniae CHA, OXA-48 + TEM-1",1 µg/mL
same,MIC,K. pneumoniae COL (KPC-2 + TEM-1 + SHV-1 + CTX-M-15),4 µg/mL
same,MIC,K. pneumoniae COO (CTX-M-15 + SHV28),> 32 µg/mL
same,MIC,"K. pneumoniae COO, CTX-M-15 + SHV-28, non-carbapenemase producer, porin deficiency",> 32 µg/mL
same,MIC,K. pneumoniae DAL (OXA-48 + CTX-M-15 + TEM-1),2 µg/mL
same,MIC,"K. pneumoniae DAL, OXA-48 + TEM-1 + CTX-M-15",2 µg/mL
same,MIC,"K. pneumoniae DIA, OXA-48 + TEM-1b + CTX-M-15 + SHV-11 + OXA-1",> 32 µg/mL
same,MIC,"K. pneumoniae DUW, OXA-48 + TEM-1 + CTX-M-15 + SHV-28",32 µg/mL
same,MIC,K. pneumoniae EGY (OXA-48 + CTX-M-15),3 µg/mL
same,MIC,"K. pneumoniae EGY, OXA-48 + CTX-M-15",3 µg/mL
same,MIC,K. pneumoniae ELK (OXA-48 + TEM-1 + CTX-M-15 + SHV-11),3 µg/mL
same,MIC,"K. pneumoniae ELK, OXA-48 + TEM-1 + CTX-M-15 + SHV-11",3 µg/mL
same,MIC,"K. pneumoniae ENN, VIM-1+ SHV-5",1.5 µg/mL
same,MIC,K. pneumoniae FOS (CTX-M-15 + TEM-1 + SHV-11),> 32 µg/mL
same,MIC,"K. pneumoniae FOS, CTX-M-15 + TEM-1 + SHV-11, non-carbapenemase producer, porin deficiency",> 32 µg/mL
same,MIC,"K. pneumoniae GES, KPC-2 + TEM-1 + SHV-11",12 µg/mL
same,MIC,K. pneumoniae HOL (OXA-181 + CTX-M-15),4 µg/mL
same,MIC,"K. pneumoniae HOL, OXA-181 + CTX-M-15",4 µg/mL
same,MIC,"K. pneumoniae HPA, OXA-48 + TEM-1 + CTX-M-15 + OXA-1",> 32 µg/mL
same,MIC,K. pneumoniae IND (NDM-1 + OXA-1 + CTX-M-15),8 µg/mL
same,MIC,"K. pneumoniae KAM, KPC-3 + TEM-1 + SHV-11",12 µg/mL
same,MIC,K. pneumoniae KDH (DHA-2),0.5 µg/mL
same,MIC,"K. pneumoniae KI2, NDM-1 + CTX-M-15 + OXA-1",8 µg/mL
same,MIC,"K. pneumoniae KIE, NDM-1 + SHV-38 + CMY-16 + OXA-10",2 µg/mL
same,MIC,K. pneumoniae KPN (CTX-M-15),0.12 µg/mL
same,MIC,"K. pneumoniae KPN, CTX-M-15, non-carbapenemase producer",0.012 µg/mL
same,MIC,K. pneumoniae LEG (CTX-M-15 + TEM-1 + SHV-12),> 32 µg/mL
